BindingDB's records for doi:10.1021/jm0492397 (Saarland University, 2005)

Molecular target: T1, Cytochrome P450 11B1, mitochondrial (Homo sapiens, UniProt P15538)
T1 sequence (P15538 whole entry): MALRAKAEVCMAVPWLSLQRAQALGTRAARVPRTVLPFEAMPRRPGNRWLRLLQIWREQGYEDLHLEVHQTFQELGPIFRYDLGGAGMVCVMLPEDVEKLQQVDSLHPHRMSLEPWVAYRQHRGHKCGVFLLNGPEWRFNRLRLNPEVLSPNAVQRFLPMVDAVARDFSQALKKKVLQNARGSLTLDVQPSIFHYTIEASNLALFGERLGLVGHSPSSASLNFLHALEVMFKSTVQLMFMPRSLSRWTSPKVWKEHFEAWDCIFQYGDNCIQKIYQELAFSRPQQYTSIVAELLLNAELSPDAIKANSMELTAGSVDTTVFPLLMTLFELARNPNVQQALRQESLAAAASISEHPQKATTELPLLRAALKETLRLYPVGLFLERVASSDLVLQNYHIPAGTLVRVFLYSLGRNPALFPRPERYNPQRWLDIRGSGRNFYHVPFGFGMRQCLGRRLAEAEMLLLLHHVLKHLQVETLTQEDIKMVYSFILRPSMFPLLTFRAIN
Test: CYP11B assay
Method: The enzyme activity was assayed by monitoring the conversion of deoxycorticosterone to corticosterone in the presence of inhibitor compounds. The product formation was monitored by HPTLC using a phosphoimager system.

| SMILES | IC50 |
| --- | --- |
| C/C(=C1/CCc2cc(F)ccc21)c1cccnc1 [3-{1-[(1E)-5-fluoro-2,3-dihydro-1H-inden-1-ylidene]ethyl}pyridine] | 0.159 µM |
| C(=C1/CCCc2ccccc21)/c1ccncc1 [4-[(E)-3,4-Dihydronaphthalen-1(2H)-ylidenemethyl]pyridine] | 0.282 µM |
| Brc1ccc2c(c1)CC/C2=C/c1ccncc1 [4-{[(1Z)-5-bromo-2,3-dihydro-1H-inden-1-ylidene]methyl}pyridine] | 0.877 µM |
| Clc1ccc2c(c1)CC/C2=C/c1ccncc1 [4-{[(1Z)-5-chloro-2,3-dihydro-1H-inden-1-ylidene]methyl}pyridine] | 1.12 µM |
